Assay [1] concerns the target human AChE (Homo sapiens, UniProt P22303). Description: Inhibition of AChE. It counts as biochemical. To be noted: for inhibition at 10 µM: read-out: AChE Inhibition at 10 µM [%].
Assay [2] has as its target human H1R (Homo sapiens, UniProt P35367). Description: Human H1R radioligand displacement assay. In kind it is binding. As to conditions: for inhibition at 10 µM: read-out: hH1R Inhibition at 10 µM [%] ±SD (n); for inhibition at 1 µM: read-out: hH1R Inhibition at 1 µM [%] (n).
The target in assay [3] is T1, human recombinant MAO-A (Homo sapiens, UniProt P21397).
T1 sequence (P21397 1-527): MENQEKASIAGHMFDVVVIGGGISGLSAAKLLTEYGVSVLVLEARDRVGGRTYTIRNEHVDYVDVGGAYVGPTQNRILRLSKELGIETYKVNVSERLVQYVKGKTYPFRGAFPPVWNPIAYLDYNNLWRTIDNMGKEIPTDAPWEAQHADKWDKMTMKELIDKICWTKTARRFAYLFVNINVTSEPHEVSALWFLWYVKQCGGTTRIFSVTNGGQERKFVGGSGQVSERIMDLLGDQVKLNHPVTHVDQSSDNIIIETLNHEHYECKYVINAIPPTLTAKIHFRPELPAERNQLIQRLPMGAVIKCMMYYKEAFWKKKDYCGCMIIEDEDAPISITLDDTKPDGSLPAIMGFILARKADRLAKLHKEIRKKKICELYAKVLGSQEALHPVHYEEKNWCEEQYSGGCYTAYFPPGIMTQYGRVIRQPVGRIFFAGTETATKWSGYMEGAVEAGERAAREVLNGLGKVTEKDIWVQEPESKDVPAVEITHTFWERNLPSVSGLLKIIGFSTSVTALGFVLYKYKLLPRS
Description: Inhibition of monoamine oxidase A. In kind it is biochemical. To be noted: read-out: MAO-A % Inhibition at 10 µM.

For assay [4], the target named is BuChE from human serum (Homo sapiens, UniProt P06276). In words: Inhibition of BuChE. To be noted: for inhibition at 10 µM: read-out: hBuChE % Inhibition at 10 µM. It counts as biochemical.
For assay [5], the target named is human H3R (Homo sapiens, UniProt Q9Y5N1). In words: Human H3R radioligand displacement assay. To be noted: for inhibition at 1 µM: read-out: hH3R Inhibition at 1 µM [%] ±SD (n).
Assay [6] has as its target human H4R (Homo sapiens, UniProt Q9H3N8). In words: Human H4R radioligand displacement assay. To be noted: read-out: hH4R Inhibition at 10 µM [%] (n).
Assay [7] deals with T2, human recombinant MAO-B (Homo sapiens, UniProt P27338).
T2 sequence (P27338 1-520): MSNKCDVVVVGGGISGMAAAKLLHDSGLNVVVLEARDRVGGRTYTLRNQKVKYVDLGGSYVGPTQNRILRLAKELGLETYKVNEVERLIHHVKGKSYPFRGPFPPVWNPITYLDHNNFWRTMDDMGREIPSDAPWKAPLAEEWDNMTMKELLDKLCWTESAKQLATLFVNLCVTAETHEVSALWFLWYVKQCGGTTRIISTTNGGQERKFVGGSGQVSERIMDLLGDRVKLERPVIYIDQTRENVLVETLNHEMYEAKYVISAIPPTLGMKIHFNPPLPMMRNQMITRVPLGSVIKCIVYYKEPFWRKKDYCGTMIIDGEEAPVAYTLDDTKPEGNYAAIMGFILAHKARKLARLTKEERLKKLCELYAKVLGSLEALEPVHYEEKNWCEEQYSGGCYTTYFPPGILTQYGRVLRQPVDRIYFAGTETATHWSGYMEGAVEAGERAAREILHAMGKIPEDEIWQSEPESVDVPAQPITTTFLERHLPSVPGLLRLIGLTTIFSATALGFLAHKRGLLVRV
In words: Inhibition of monoamine oxidase B. In kind it is biochemical. To be noted: for MAO-B % Inhibition at 10 µM / inhibition at 10 µM: mean of three experiments; for inhibition at 10 µM: read-out: MAO-B % Inhibition at 10 µM, 10 µM.

Chain of human H3R (Q9Y5N1 whole entry): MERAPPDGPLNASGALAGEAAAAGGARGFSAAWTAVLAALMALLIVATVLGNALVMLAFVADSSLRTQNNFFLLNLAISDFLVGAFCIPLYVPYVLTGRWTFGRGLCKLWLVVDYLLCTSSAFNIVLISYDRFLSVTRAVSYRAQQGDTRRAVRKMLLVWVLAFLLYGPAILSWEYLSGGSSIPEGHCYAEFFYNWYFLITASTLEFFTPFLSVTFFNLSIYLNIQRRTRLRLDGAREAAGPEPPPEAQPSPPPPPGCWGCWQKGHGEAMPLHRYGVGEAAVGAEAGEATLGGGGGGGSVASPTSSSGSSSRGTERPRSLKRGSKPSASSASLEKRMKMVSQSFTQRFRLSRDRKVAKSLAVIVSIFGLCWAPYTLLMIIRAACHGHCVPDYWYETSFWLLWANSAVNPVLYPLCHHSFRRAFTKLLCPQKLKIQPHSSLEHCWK
Chain of human H1R (P35367 whole entry): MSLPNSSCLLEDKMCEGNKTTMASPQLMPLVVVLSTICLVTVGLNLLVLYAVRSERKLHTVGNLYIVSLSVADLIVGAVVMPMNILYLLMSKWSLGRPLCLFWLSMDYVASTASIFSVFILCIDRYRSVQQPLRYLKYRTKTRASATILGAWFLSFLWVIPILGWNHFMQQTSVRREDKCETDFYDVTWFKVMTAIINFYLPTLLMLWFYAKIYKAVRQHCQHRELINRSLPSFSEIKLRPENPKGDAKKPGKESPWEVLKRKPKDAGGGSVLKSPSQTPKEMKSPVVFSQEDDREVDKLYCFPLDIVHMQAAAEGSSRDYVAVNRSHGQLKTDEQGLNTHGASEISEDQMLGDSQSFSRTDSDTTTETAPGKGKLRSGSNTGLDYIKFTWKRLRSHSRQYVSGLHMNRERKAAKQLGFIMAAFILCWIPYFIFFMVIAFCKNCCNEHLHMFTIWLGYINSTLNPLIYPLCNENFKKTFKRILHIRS
Chain of BuChE from human serum (P06276 29-602): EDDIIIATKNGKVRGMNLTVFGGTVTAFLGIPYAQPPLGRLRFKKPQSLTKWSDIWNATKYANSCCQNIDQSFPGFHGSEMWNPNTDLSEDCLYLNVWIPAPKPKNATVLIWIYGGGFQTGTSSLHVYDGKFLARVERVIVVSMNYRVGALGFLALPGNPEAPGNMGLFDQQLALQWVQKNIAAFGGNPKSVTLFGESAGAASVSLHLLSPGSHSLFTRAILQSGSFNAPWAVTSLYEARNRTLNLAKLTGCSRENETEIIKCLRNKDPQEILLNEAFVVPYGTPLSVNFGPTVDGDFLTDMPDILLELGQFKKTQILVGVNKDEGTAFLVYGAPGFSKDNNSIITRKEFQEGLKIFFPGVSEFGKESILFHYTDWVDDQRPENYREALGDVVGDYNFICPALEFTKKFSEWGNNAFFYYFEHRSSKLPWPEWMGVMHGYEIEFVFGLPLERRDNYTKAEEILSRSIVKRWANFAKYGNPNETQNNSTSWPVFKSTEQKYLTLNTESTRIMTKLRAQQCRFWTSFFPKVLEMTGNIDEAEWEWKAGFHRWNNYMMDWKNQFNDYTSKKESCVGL
Chain of human H4R (Q9H3N8 whole entry): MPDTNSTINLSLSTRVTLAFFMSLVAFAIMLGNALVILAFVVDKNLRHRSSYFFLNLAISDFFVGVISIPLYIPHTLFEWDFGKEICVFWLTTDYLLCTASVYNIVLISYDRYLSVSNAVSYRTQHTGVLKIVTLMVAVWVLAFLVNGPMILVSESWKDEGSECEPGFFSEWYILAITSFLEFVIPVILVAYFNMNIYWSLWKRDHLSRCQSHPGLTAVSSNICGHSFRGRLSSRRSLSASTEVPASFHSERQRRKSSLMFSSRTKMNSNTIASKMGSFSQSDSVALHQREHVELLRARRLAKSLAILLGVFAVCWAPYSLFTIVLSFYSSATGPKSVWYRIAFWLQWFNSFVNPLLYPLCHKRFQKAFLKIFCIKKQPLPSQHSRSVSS
Chain of human AChE (P22303 32-614): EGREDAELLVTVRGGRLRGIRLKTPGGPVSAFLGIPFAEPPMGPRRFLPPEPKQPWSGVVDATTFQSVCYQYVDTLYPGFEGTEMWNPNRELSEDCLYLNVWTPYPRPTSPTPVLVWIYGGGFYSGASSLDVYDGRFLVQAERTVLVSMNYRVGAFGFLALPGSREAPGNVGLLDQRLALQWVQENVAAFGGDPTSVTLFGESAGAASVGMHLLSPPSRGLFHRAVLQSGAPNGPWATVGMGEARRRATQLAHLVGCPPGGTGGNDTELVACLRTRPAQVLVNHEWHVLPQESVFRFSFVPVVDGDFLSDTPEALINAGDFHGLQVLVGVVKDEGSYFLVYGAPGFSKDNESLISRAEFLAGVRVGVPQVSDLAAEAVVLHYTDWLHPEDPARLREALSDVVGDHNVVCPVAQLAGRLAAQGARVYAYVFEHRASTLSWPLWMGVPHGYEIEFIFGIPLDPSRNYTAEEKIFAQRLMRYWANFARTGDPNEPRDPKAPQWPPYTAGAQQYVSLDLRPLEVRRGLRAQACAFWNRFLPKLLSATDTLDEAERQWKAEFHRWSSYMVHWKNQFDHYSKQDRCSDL

For the compound `O=C(c1nc2ccc(OCCCCCN3CCCCC3)cc2s1)N1CCCCC1` [Compound 3o, Piperidin-1-yl(6-((5-(piperidin-1-yl)pentyl)oxy)benzo[d]thiazol-2-yl)methanone], the IC50 is > 10000 nM in assay [1], 2380 ± 320 nM in assay [4] and 3040 ± 460 nM in assay [7]. In addition, the inhibition at 10 µM in assay [1] was 27.8 ± 5.91%; in assay [2], 91.2 ± 8.2%; in assay [3], 37 ± 4%; in assay [4] it was 81 ± 1%; in assay [6], 38.8 ± 28%; in assay [7], > 60%. In addition, the Ki in assay [5] amounted to 68 nM. Besides, the “MAO-B % Inhibition at 10 µM” value in assay [7] is 70 ± 4%.

In assay [1], `O=C(c1nc2ccc(OCCCN3CCCC3)cc2s1)N1CCCC1` [Compound 3h, Pyrrolidin-1-yl-(6-(3-(pyrrolidin-1-yl)propoxy)benzo[d]thiazol-2-yl)methanone] registered an IC50 of 7210 ± 2300 nM. Moreover, the inhibition at 10 µM was determined as 56.8 ± 7.14% in assay [1]; 39.1 ± 13% in assay [2]; 22 ± 4% in assay [3]; 13 ± 2% in assay [4]; 54.3 ± 13% in assay [6]; 24 ± 4% in assay [7]. Also, the Ki in assay [5] came to 38 nM.

On to `O=C(c1nc2ccc(OCCN3CCCC3)cc2s1)N1CCCC1` [Compound 3b, Pyrrolidin-1-yl-(6-(2-(pyrrolidin-1-yl)ethoxy)benzo[d]thiazol-2-yl)methanone], for which the results for the IC50 in assay [1] and in assay [4] were 440 ± 100 nM and 5310 ± 10 nM, respectively. Moreover, the inhibition at 10 µM is 95.3 ± 0.8% in assay [1]; < 0% in assay [2]; 58 ± 2% in assay [3]; 70 ± 1% in assay [4]; 44.9 ± 18.1% in assay [6]; 47 ± 3% in assay [7]. For the same compound, affinity in assay [5] was put at a Ki of 640 nM.

Regarding `O=C(c1nc2ccc(OCCCCN3CCCC3)cc2s1)N1CCCC1` [Compound 3n, Pyrrolidin-1-yl(6-(4-(pyrrolidin-1-yl)butoxy)benzo[d]thiazol-2-yl)methanone], the IC50 was found to be 1300 ± 100 nM in assay [1] and 1320 ± 120 nM in assay [4]. Besides, the inhibition at 10 µM in assay [1] came out at 83 ± 3.27%; in assay [2], 37.5 ± 7.5%; in assay [3], 31 ± 4%; in assay [4], 80 ± 1%; in assay [6], 57.9 ± 13.3%; in assay [7], 49 ± 4%. This compound also gave a Ki in assay [5] of 59 nM.

Regarding `O=C(c1nc2ccc(OCCCN3CCCCCC3)cc2s1)N1CCCCCC1` [Compound 4b, Azepan-1-yl-(6-(3-(azepan-1-yl)propoxy)benzo[d]thiazol-2-yl)methanone], it took 5910 ± 670 nM to reach half-maximal inhibition in assay [1] (IC50). Besides, the inhibition at 10 µM in assay [1] is 62.8 ± 3.35%; in assay [3], 29 ± 2%; in assay [4], 51 ± 2%; in assay [7], 46 ± 5%. The inhibition at 1 µM in assay [2] worked out at 41.9 ± 33.8%. The same compound registered a Ki in assay [5] of 12 nM.

With `O=C(NC1CCCC1)c1nc2ccc(OCCCCCNC3CCCC3)cc2s1` [Compound 3t, N-Cyclopentyl-6-((5-(cyclopentylamino)pentyl)oxy)benzo[d]thiazole-2-carboxamide], the IC50 was determined as 3550 ± 540 nM in assay [1] and 1750 ± 60 nM in assay [4]. In addition, the inhibition at 10 µM in assay [1] came to 75.5 ± 4.73%; in assay [2] it was 47.3 ± 8.91%; in assay [3], 39 ± 4%; in assay [4] it was 84 ± 1%; in assay [6] it was 41.8 ± 31.7%; in assay [7], 47 ± 5%. Further, the Ki in assay [5] was > 1000 nM.

On to `CCOC(=O)c1nc2ccc(OCCN3CCCCC3)cc2s1` [Compound 1b, Ethyl 6-(2-(piperidin-1-yl)ethoxy)benzo[d]thiazole-2-carboxylate], for which, in assay [1], the IC50 is > 10000 nM. The inhibition at 10 µM was 9.25 ± 7.88% in assay [1], < 0% in assay [2] and 61.7 ± 35.4% in assay [6]. The inhibition at 1 µM in assay [5] stood at 35.2 ± 14.4%.

Consider `O=C(NC1CCCCCC1)c1nc2ccc(OCCCCNC3CCCCCC3)cc2s1` [Compound 3k, N-Cycloheptyl-6-(4-(cycloheptylamino)butoxy)benzo[d]thiazole-2-carboxamide], for which the IC50 in assay [1] was > 10000 nM. For the same compound, the inhibition at 10 µM in assay [1] came to 9.7 ± 4.91%; in assay [2], 14.2 ± 11.7%; in assay [6] it was 61.5 ± 8.9%. Further, the inhibition at 1 µM in assay [5] was determined as 39 ± 8.9%.

Turning to `O=C(c1nc2ccc(OCCCCCN3CCCC3)cc2s1)N1CCCC1` [Compound 3s, Pyrrolidin-1-yl-(6-((5-(pyrrolidin-1-yl)pentyl)oxy)benzo[d]thiazol-2-yl)methanone], the inhibition at 10 µM is 58.6 ± 3.73% in assay [1]; 66.2 ± 7.3% in assay [2]; 45 ± 3% in assay [3]; 69 ± 1% in assay [4]; 63.7 ± 13% in assay [6]; > 60% in assay [7]. The IC50 in assay [4] is 2350 ± 230 nM; in assay [7] it was 1600 ± 160 nM. In addition, the affinity in assay [5] corresponds to a Ki of 36 nM. In addition, the “MAO-B % Inhibition at 10 µM” value in assay [7] is 75 ± 3%.

As to `O=C(NC1CC1)c1nc2ccc(OCCCNC3CC3)cc2s1` [Compound 3g, N-Cyclopropyl-6-(3-(cyclopropylamino)propoxy)benzo[d]thiazole-2-carboxamide], in assay [1], the IC50 was > 10000 nM. Also, the results for the inhibition at 10 µM in assay [1], in assay [2] and in assay [6] were 15.4 ± 11.2%, 13.6 ± 10.7% and 30.2 ± 14.3%, respectively. The inhibition at 1 µM in assay [5] came to 27.7 ± 12.8%.

Regarding `O=C(c1nc2ccc(OCCN3CCCCC3)cc2s1)N1CCCCC1` [Compound 3a, Piperidin-1-yl-(6-(2-(piperidin-1-yl)ethoxy)benzo[d]thiazol-2-yl)methanone], in assay [1], the IC50 is > 10000 nM and the inhibition at 10 µM was determined as 35.5 ± 13.4%. Also, the inhibition at 10 µM in assay [2] is < 0%. Moreover, in assay [5], the Ki was > 1000 nM and the inhibition at 1 µM was 68 ± 9.1%. In addition, in assay [6], the inhibition at 10 µM stood at 30.3 ± 24.9%.

In the case of `O=C(NCCN1CCCC1)c1nc2ccc(OCCCNCCN3CCCC3)cc2s1` [Compound 4a, N-(2-(Pyrrolidin-1-yl)ethyl)-6-(3-((2-(pyrrolidin-1-yl)ethyl)amino)propoxy)benzo[d]thiazole-2-carboxamide], the IC50 was 1240 ± 70 nM in assay [1] and 169 ± 19 nM in assay [4]. Also, the inhibition at 10 µM in assay [1] turned out to be 86.9 ± 1.51%; in assay [3] it was 29 ± 4%; in assay [4] it was 97 ± 1%; in assay [7] it was 51 ± 1%. In addition, the inhibition at 1 µM in assay [2] worked out at 28.1 ± 39.1%. This compound also yielded a Ki in assay [5] of 53 nM.

For the compound `CC1CCCN(CCCOc2ccc3nc(C(=O)N4CCCC(C)C4)sc3c2)C1` (stereo not shown) [Compound 4k, (3-Methylpiperidin-1-yl)(6-(3-(3-methylpiperidin-1-yl)propoxy)benzo[d]thiazol-2-yl)methanone], the IC50 in assay [1] was > 10000 nM. The inhibition at 10 µM is 34.4 ± 2.15% in assay [1], 32 ± 2% in assay [3], 30 ± 5% in assay [4] and 48 ± 5% in assay [7]. Besides, in assay [2], the inhibition at 1 µM was 42.9 ± 28.3%. The compound also registered a Ki in assay [5] of 64 nM.

As to `O=C(c1nc2ccc(OCCCN3CCCCC3)cc2s1)N1CCCCC1` [Compound 3d, Piperidin-1-yl-(6-(3-(piperidin-1-yl)propoxy)benzo[d]thiazol-2-yl)methanone], in assay [1], the IC50 is > 10000 nM. For the same compound, the inhibition at 10 µM in assay [1] came to 33.6 ± 10.8%; in assay [2] it was 65.3 ± 9.2%; in assay [3] it was 33 ± 3%; in assay [4], 31 ± 1%; in assay [6] it was 63.1 ± 11.2%; in assay [7], 28 ± 5%. This compound gave a Ki in assay [5] of 74 nM.

With `CCOC(=O)c1nc2ccc(OCCN3CCCC3)cc2s1` [Compound 1c, Ethyl 6-(2-(pyrrolidin-1-yl)ethoxy)benzo[d]thiazole-2-carboxylate], the IC50 in assay [1] is 7630 ± 1600 nM. In addition, the values for the inhibition at 10 µM in assay [1], in assay [2] and in assay [6] were 57.2 ± 5.41%, 1 ± 9.7% and 54 ± 12.1%, respectively. For the same compound, the inhibition at 1 µM in assay [5] amounted to 50.2 ± 10.9%.

(Values after article PMC9937012 (Journal of Enzyme Inhibition and Medicinal Chemistry, 2023).)
